Key:
Adenosine A2 receptor [1] = target: Adenosine A2 receptor (Homo sapiens, UniProt P29275+P29274); test: In vitro binding affinity to Adenosine A2 receptor of human platelets by inhibition of NECA-stimulated adenylate cyclase; type: functional
Adenosine receptor A1 [2] = target: T1, Adenosine receptor A1 (Rattus norvegicus, UniProt P25099); test: In vitro binding affinity to Adenosine A1 receptor of rat cerebral cortical membranes using 1 nM [3H]PIA
T1 sequence (P25099 whole entry): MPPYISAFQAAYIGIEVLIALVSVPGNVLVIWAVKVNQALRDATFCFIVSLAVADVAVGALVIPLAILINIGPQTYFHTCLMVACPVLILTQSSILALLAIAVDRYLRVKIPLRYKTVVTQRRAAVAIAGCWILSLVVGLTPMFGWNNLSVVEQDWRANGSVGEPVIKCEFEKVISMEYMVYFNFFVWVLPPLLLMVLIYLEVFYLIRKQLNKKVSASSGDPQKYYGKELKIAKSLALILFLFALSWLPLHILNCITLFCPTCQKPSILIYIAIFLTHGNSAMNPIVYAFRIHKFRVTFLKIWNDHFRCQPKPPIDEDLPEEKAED

Cavia porcellus [3] = species: Cavia porcellus; test: Reversal of spasmogen-induced contraction of guinea pig cylindrical tracheal segments induced by 5-hydroxytryptamine (2x 10e-6 M); type: functional; settings: Trachea, read-out: ED50 (the source's name)
Cavia porcellus [4] = species: Cavia porcellus; test: Reversal of spasmogen-induced contraction of guinea pig cylindrical tracheal segments induced by acetylcholine (1 x 10e -5 M); type: functional; settings: Trachea, read-out: ED50 (the source's name)
Cavia porcellus [5] = species: Cavia porcellus; test: Reversal of spasmogen-induced contraction of guinea pig cylindrical tracheal segments induced by histamine (1x […] -5 M); type: functional; settings: Trachea, read-out: ED50 (the source's name)
Cavia porcellus [6] = species: Cavia porcellus; test: Reversal of spasmogen-induced contraction of guinea pig cylindrical tracheal segments induced by Carbachol (7.4 x 10e -7 M); type: functional; settings: Trachea, read-out: ED50 (the source's name)
Cavia porcellus [7] = species: Cavia porcellus; test: Reversal of spasmogen-induced contraction of guinea pig cylindrical tracheal segments induced by histamine (1 x 10e -5 M); type: functional; settings: Trachea, read-out: ED50 (the source's name)
Adenosine A2 receptor [8] = target: Adenosine A2 receptor (Rattus norvegicus, UniProt P29276+P30543); test: Inhibition of adenosine stimulated accumulation of cyclic AMP at Adenosine A2 receptor of VA13 fibroblasts of rat; type: functional
[9] = target: Adenosine A2 receptor (Cavia porcellus); test: Inhibition of 2-CADO-stimulated adenylate cyclase at Adenosine A2 receptor in guinea pig cerebral cortical slices
Cavia porcellus [10] = species: Cavia porcellus; test: Reversal of spasmogen-induced contraction of guinea pig cylindrical tracheal segments induced by acetylcholine (1*10e-5 M); type: functional; settings: Trachea, read-out: ED50 (the source's name)
Cavia porcellus [11] = species: Cavia porcellus; test: Reversal of spasmogen-induced contraction of guinea pig cylindrical tracheal segments induced by Carbachol (7.4x 10e-7 M); type: functional; settings: Trachea, read-out: ED50 (the source's name)
Adenosine receptor A1 [12] = target: T1, Adenosine receptor A1; test: Binding of 1 nM [3H]CHA to Adenosine A1 receptor of rat cerebral cortical membranes; type: cell membranes, Membrane

**Q.** `Cc1n[nH]c2c([N+](=O)[O-])c3[nH]nc(C)c3cc12` was tested. Which Ki (Adenosine A2 receptor [1]) did it give?
**A.** The Ki was 14.4 µM.

**Q.** And the Ki (Adenosine receptor A1 [2])?
**A.** Its Ki is 1.9 µM.

**Q.** And the EC50 (Cavia porcellus [3])?
**A.** Its EC50 is 1.5 µM.

**Q.** What about the EC50 (Cavia porcellus [4]) of the same compound?
**A.** The EC50 was 25 µM.

**Q.** And the EC50 (Cavia porcellus [5])?
**A.** Its EC50 is 6.4 µM.

**Q.** `Cc1nn(C)c2c(C)c3c(cc12)c(C)nn3C` was tested. Which Ki (Adenosine A2 receptor [1]) did it give?
**A.** The Ki was 170 µM.

**Q.** And the Ki (Adenosine receptor A1 [2])?
**A.** Its Ki is 54 µM.

**Q.** What about the EC50 (Cavia porcellus [3]) of the same compound?
**A.** Its EC50 is 20 µM.

**Q.** And the EC50 (Cavia porcellus [6])?
**A.** Its EC50 is 9.6 µM.

**Q.** What about the EC50 (Cavia porcellus [5]) of the same compound?
**A.** The EC50 was 38 µM.

**Q.** `Cc1n[nH]c2c(Br)c3[nH]nc(C)c3cc12` was tested. Which EC50 (Cavia porcellus [3]) did it give?
**A.** Its EC50 is 0.9 µM.

**Q.** And the EC50 (Cavia porcellus [4])?
**A.** The EC50 was 2 µM.

**Q.** What about the EC50 (Cavia porcellus [7]) of the same compound?
**A.** The EC50 was 3 µM.

**Q.** What does the source list for `CCn1c(=O)c2nc[nH]c2n(CC)c1=O`?
**A.** Ki (Adenosine A2 receptor [8]): 1.2 µM; Ki [9]: 3 µM

**Q.** What does the source list for `Cc1n[nH]c2c(C)c3[nH]nc(C)c3cc12`?
**A.** Ki (Adenosine A2 receptor [1]): 4.8 µM; Ki (Adenosine receptor A1 [2]): 1.2 µM; EC50 (Cavia porcellus [3]): 4.6 µM; EC50 (Cavia porcellus [4]): 8.5 µM; EC50 (Cavia porcellus [5]): 24 µM

**Q.** How did the Ki (Adenosine A2 receptor [1]) turn out when `Cc1n[nH]c2cc3[nH]nc(C)c3cc12` was run?
**A.** Its Ki is 25.6 µM.

**Q.** What about the Ki (Adenosine receptor A1 [2]) of the same compound?
**A.** The Ki was 8 µM.

**Q.** What about the EC50 (Cavia porcellus [3]) of the same compound?
**A.** The EC50 was 2 µM.

**Q.** And the EC50 (Cavia porcellus [10])?
**A.** Its EC50 is 4 µM.

**Q.** And the EC50 (Cavia porcellus [7])?
**A.** Its EC50 is 1.4 µM.

**Q.** For `Cc1nn(C)c2cc3c(cc12)c(C)nn3C`, which Ki (Adenosine A2 receptor [1]) is on record?
**A.** The Ki was 80 µM.

**Q.** And the Ki (Adenosine receptor A1 [2])?
**A.** The Ki was over 100 µM.

**Q.** And the EC50 (Cavia porcellus [3])?
**A.** Its EC50 is 17 µM.

**Q.** And the EC50 (Cavia porcellus [5])?
**A.** Its EC50 is 75 µM.

**Q.** With `CCn1nc(C)c2cc3c(C)nn(CC)c3cc21` as the compound, how does the Ki (Adenosine A2 receptor [1]) read?
**A.** Its Ki is 56 µM.

**Q.** What about the Ki (Adenosine receptor A1 [2]) of the same compound?
**A.** The Ki was 27 µM.

**Q.** What about the EC50 (Cavia porcellus [3]) of the same compound?
**A.** The EC50 was 1.3 µM.

**Q.** What about the EC50 (Cavia porcellus [6]) of the same compound?
**A.** Its EC50 is 11 µM.

**Q.** And the EC50 (Cavia porcellus [5])?
**A.** Its EC50 is 5.2 µM.

**Q.** With `CCCn1nc(C)c2cc3c(C)nn(CCC)c3cc21` as the compound, how does the Ki (Adenosine A2 receptor [1]) read?
**A.** Its Ki is 32 µM.

**Q.** And the Ki (Adenosine receptor A1 [2])?
**A.** The Ki was 10.5 µM.

**Q.** And the EC50 (Cavia porcellus [3])?
**A.** Its EC50 is 13 µM.

**Q.** And the EC50 (Cavia porcellus [6])?
**A.** Its EC50 is 69 µM.

**Q.** What about the EC50 (Cavia porcellus [5]) of the same compound?
**A.** The EC50 was 41 µM.

**Q.** `CCn1nc(C)c2cc3c(C)nn(CC)c3c(C)c21` was tested. Which Ki (Adenosine A2 receptor [1]) did it give?
**A.** Its Ki is 53 µM.

**Q.** What about the Ki (Adenosine receptor A1 [2]) of the same compound?
**A.** Its Ki is 20 µM.

**Q.** What about the EC50 (Cavia porcellus [11]) of the same compound?
**A.** The EC50 was 1 µM.

**Q.** What about the EC50 (Cavia porcellus [4]) of the same compound?
**A.** The EC50 was 4.3 µM.

**Q.** And the EC50 (Cavia porcellus [5])?
**A.** The EC50 was 4.1 µM.

**Q.** With `Cn1c(=O)[nH]c2[nH]cnc2c1=O` [1-METHYLXANTHINE] as the compound, how does the Ki (Adenosine receptor A1 [12]) read?
**A.** Its Ki is 9 µM.

**Q.** What about the Ki (Adenosine A2 receptor [8]) of the same compound?
**A.** Its Ki is 6.6 µM.

**Q.** With `Cn1c(=O)c2[nH]cnc2n(C)c1=O` [AMINOPHYLLINE] as the compound, how does the EC50 (Cavia porcellus [3]) read?
**A.** The EC50 was 21 µM.

**Q.** What about the EC50 (Cavia porcellus [4]) of the same compound?
**A.** Its EC50 is 57 µM.

**Q.** What about the EC50 (Cavia porcellus [5]) of the same compound?
**A.** The EC50 was 42 µM.

**Q.** Which Ki (Adenosine A2 receptor [8]) does the source give for `O=c1[nH]c(=O)c2nc[nH]c2[nH]1` [XANTHINE] here?
**A.** Its Ki is 130 µM.

Source: ChEMBL document CHEMBL1123992, “Benzo[1,2-c:5,4-c']dipyrazoles: non-xanthine adenosine antagonists” (J Med Chem, 1988)
